These results are taken from PMC9616048, “Thermal proteome profiling reveals Haemonchus orphan protein HCO_011565 as a target of the nematocidal small molecule UMW-868” (Frontiers in Pharmacology, 2022).

Series [1] deals with exsheathed third-stage larvae (xL3s) of H. contortus. Description: High throughput screen, xL3 motility (infrared light beam-interference). It is filed as cell-based. The following applies: Haemonchus contortus, 90 h, read-out: Motility reduction at 90 h (%). The procedure:
An established platform was used for compound screening ([Taki et al., 2021a]). Using a semi-automated liquid handling robot (VIAFLO ASSIST PLUS, Integra Biosciences), compounds were individually diluted to […] in LB* containing 0.2% (v/v) DMSO and then dispensed in 20 µl into the wells of sterile 384-well flat bottom microtitre plates (cat. no. 3680; Corning); 320 compounds were arrayed on each plate, with 16 wells being negative controls (with LB* + 0.2% DMSO) and four wells containing each monepantel (Zolvix; Elanco), moxidectin (Cydectin; Virbac), monepantel + abamectin (Zolvix Plus; Elanco) and compound MIPS-0018666 (abbreviated here as M-666) ([Le et al., 2018]) as positive controls (20 µM). Following the dilution and dispensing of compounds into plates, 80 H. contortus xL3s in 20 μl of LB* were transferred to individual wells; after this step, the final concentrations were 20 µM of test- or positive-control compound, and 0.2% of DMSO. During dispensing, xL3s were maintained in a homogenous suspension using a constant stream of bubbles produced employing an aquarium pump (H2Pro). Plates containing H. contortus xL3s were incubated at 38 °C, 10% (v/v) CO2 and >90% relative humidity.
After 90 h of incubation with compounds (20 μM), H. contortus xL3s motility was measured for 15 min in individual wells of each plate by infrared light beam-interference ([Simonetta and Golombek, 2007]) using a WMicroTracker ONE instrument (Phylumtech). Raw data captured were normalised against measurements obtained for the positive (monepantel) and negative (LB* + 0.2% DMSO) controls to remove plate-to-plate variation by calculating the percentage of motility using the program GraphPad Prism (v.9.1.2; GraphPad Software). A compound was considered active (“hit”) if it reduced larval motility by ≥ 70%. To continually assess the performance of the screening assay, the Z′-factor ([Zhang et al., 1999]) was calculated (using data for the DMSO and the M-666 controls) for individual plates (n = 43) and was consistently ≥0.7; reliable assays achieve a Z′-factor of between 0.5 and 1. The signal to background (S/B) ratio (for the same controls) ([Sui and Wu, 2007]) was consistently >200.

Series [2] concerns mitochondria of HepG2 human hepatoma cells. Description: Mitochondrial toxicity in HepG2 cells (galactose medium). The conditions noted are these: HepG2 mitochondria, concentrations of up to 100 µM. It is filed as cell-based. The procedure: The toxicities of compounds on cell and mitochondria were assessed to estimate their half-maximal cytotoxic concentrations (CC50) and half-maximal mitotoxic concentrations (MC50), respectively. HepG2 human hepatoma cells were seeded into wells of a 96-well plate at a density of 5.5 × 10^4 cells per well in 80 µl of Dulbecco’s modified eagle medium (DMEM; with GlutaMax™ cat. no. 10566016 or 4 mM L-glutamine cat. no. 11966025; Thermo Fisher Scientific), supplemented with 25 mM D-glucose (cytotoxicity) or D-galactose (mitotoxicity), 10% (v/v) inactivated foetal bovine serum (iFBS), 100 IU/ml of penicillin, 100 μg/ml of streptomycin and 0.25 μg/ml of amphotericin B (designated DMEM*). Cells were allowed to adhere for 16 h at 37°C and 5% (v/v) CO2 at > 90% relative humidity, then, incubated for 48 h with individual, serially-diluted compounds (two-fold serial dilution in DMEM*; […]) in a final volume of 100 µl. For the assessment of toxicity on mitochondria, cells were starved of serum (DMEM* without iFBS) for 4 h prior to the 48 h-incubation with compounds ([Swiss and Will, 2011]; [Kamalian et al., 2015]). Two positive control compounds, doxorubicin (cytotoxic control) and M-666 (mitotoxic control) were each added to three individual wells in each 96-well plate at a single concentration of 10 µM. DMEM* + 0.25% (v/v) DMSO was added to 12 wells in each plate as negative controls. Monepantel and moxidectin were also serially diluted — prepared in the same manner as test compounds — and used as (“non-toxic”) reference compounds. After 48 h of incubation, cell viability was determined by the crystal violet staining method ([Śliwka et al., 2016]). The absorbance (595 nm) of treated cells was normalised with reference to the negative control (100% viability). To determine the CC50 and MC50 values, compound concentrations were log10-transformed, baseline-corrected using a respective positive control (doxorubicin or M-666) and fitted using a variable slope four-parameter equation with a least squares (ordinary) fit model using GraphPad Prism software (v.9.1.2). Compounds and controls were tested in triplicate.

The test system of series [3] is Caenorhabditis elegans young adults. The experiment in a line: In vitro activity on C. elegans. The series is classed as cell-based.
The test system of series [4] is H. contortus fourth-stage larvae (L4s) development. Description: Dose-response evaluation, L4 development. It is filed as cell-based, Haemonchus contortus. The conditions noted are these: for IC50: Haemonchus contortus, 168 h. The procedure:
These evaluations were carried out to estimate the half-maximal inhibitory concentrations (IC50 values) for hit compounds against H. contortus xL3s. With reference to the two positive-control compounds (monepantel and moxidectin), IC50 values for compounds were estimated ([Preston et al., 2015]; [Taki et al., 2021a]) using two-fold serial dilution (in LB*; 9 points from 50 μM to 0.2 µM) in 96-well plates (cat. no. 3596; Corning) with larvae at a density of 300 H. contortus xL3s in 100 µl per well. Plates containing H. contortus xL3s were incubated at 38°C, 10% (v/v) CO2 and >90% relative humidity.
The motility of H. contortus xL3s and L4 development were measured following 168 h of incubation with compound ([Taki et al., 2021a]). Compound concentrations were log10-transformed and fitted using a variable slope four-parameter equation, constraining the highest value to 100% employing a least squares (ordinary) fit model using GraphPad Prism software (v.9.1.2). Compounds were tested by three independent experiments in triplicate. A one-way analysis of variance (ANOVA) with a Tukey’s multiple comparison test or an unpaired t-test was used to establish statistically significant differences in larval motility or development.

Each structure is given as a SMILES string. Where two headings read alike, the source gives them in different places.

Regarding `CCCc1ccc(-c2nc(-c3cccs3)no2)cc1` [UMW-868, 5-(4-propylphenyl)-3-(2-thienyl)-1,2,4-oxadiazole], the inhibition at 20 µM in series [1] came out at 78.4%. Moreover, the “mitotoxicity (in words)” value in series [2] is on record as “did not display any appreciable cytotoxicity or mitotoxicity”. The “motility reduction of C. elegans” value in series [3] (10 µM, at 40 h) is given as 53.5%. In addition, the half-inhibitory concentration (IC50) (usually the midpoint of a concentration-inhibition curve) in series [3] (Caenorhabditis elegans, read-out: IC50 (C. elegans motility)) was found to be 9.9 µM; in series [4] (analog series, read-out: L4 development inhibition (IC50 in µM)), 50 µM; in series [4] (larval development inhibition, hit evaluation, read-out: IC50 (development)) it was 5.8 µM. Further, the “abnormal phenotypes in affected xL3s” value in series [4] (dose-response evaluation) is “curved or evisceration”.
